Counter-ions that a name gives are not always drawn.

SMYD3, sequence (Q9H7B4 whole entry): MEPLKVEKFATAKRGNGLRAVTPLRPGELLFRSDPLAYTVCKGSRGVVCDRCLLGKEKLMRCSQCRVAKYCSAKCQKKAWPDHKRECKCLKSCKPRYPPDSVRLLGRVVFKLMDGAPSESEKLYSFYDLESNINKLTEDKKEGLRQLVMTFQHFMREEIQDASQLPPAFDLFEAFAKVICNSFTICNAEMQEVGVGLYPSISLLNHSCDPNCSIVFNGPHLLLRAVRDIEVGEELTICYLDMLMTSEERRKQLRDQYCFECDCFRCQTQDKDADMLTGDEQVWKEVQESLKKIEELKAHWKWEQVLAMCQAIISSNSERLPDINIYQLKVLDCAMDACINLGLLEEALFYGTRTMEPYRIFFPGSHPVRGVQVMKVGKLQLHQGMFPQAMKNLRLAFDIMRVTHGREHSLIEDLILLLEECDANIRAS

The first test has as its target SMYD3 (Homo sapiens (Human), UniProt Q9H7B4). The test is described as follows: SMYD3 biochemical assay (SMYD3 enzyme assay on MEKK2 protein substrate, 3H-SAM scintillation proximity assay). Particulars: Table 1A; average of n = 1 to n = 50; read-out: SMYD3 Biochem IC50. In a few lines: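 Native full-length human SMYD3, expressed in E. coli, was preincubated with compound for 30 min at room temperature in 25 mM Tris-Cl pH 8.0, 1 mM TCEP, 0.005% BSG and 0.005% Tween 20. ³H-SAM plus GST-MEKK2 then started the reaction. It was stopped with unlabeled SAM (100 uM final), and methylated MEKK2 was read by SPA.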
`C[C@@H]1C[C@H](NC(=O)c2ccccc2)CCN1S(=O)(=O)CCCN` (stereo in doubt) [compound 564, (±)-cis-N-(1-((3-aminopropyl)sulfonyl)-2-methylpiperidin-4-yl)benzamide]: the IC50 is greater than 10 µM.

`N[C@H]1CC[C@H](NC(=O)c2cc3c(cn2)NC(=O)C3)CC1` [compound 559, N-((1r,4r)-4-aminocyclohexyl)-2-oxo-2,3-dihydro-1H-pyrrolo[2,3-c]pyridine-5-carboxamide]: the IC50 amounted to 3.49 µM. Turning to `C[C@H]1C[C@@H](NC(=O)c2ccccc2)CCN1S(=O)(=O)CCCN` (stereo in doubt) [compound 570, (±)-cis-N-(1-((3-aminopropyl)sulfonyl)-2-methylpiperidin-4-yl)benzamide], the IC50 was greater than 10 µM. Same read-out and setting: to `CN(C(=O)c1ncn[nH]1)[C@H]1CC[C@H](N)CC1` [compound 561, N-((1r,4r)-4-aminocyclohexyl)-N-methyl-1H-1,2,4-triazole-5-carboxamide] belongs greater than 10 µM.

The same test, now with this note: read-out: SMYD3 Biochem IC50.
Turning to `N[C@H]1CC[C@H](NC(=O)c2ncccc2O)CC1` [compound 480, N-((1r,4r)-4-aminocyclohexyl)-3-hydroxypicolinamide], the IC50 is greater than 100 µM. With `Cc1cccc2cc(C(=O)N[C@H]3CC[C@H](N)CC3)[nH]c12` [compound 343, N-((1r,4r)-4-aminocyclohexyl)-7-methyl-1H-indole-2-carboxamide], the IC50 worked out at 68.5 µM. With `NC1CCC(NC(=O)c2cccc3c2NC(=O)C3)CC1` (stereo not drawn) [compound 506, N-(4-aminocyclohexyl)-2-oxoindoline-7-carboxamide], the IC50 stood at 42.3 µM. In the case of `N[C@H]1CC[C@H](NC(=O)c2cn3ncccc3n2)CC1` [compound 447, N-((1r,4r)-4-aminocyclohexyl)imidazo[1,2-b]pyridazine-2-carboxamide], the IC50 was greater than 100 µM. Consider `Cn1c(C(=O)N[C@H]2CC[C@H](N)CC2)cc2ccccc21` [compound 246, N-((1r,4r)-4-aminocyclohexyl)-1-methyl-1H-indole-2-carboxamide], for which the IC50 is greater than 100 µM.

Regarding `COc1cc(C(=O)N[C@H]2CC[C@H](NC(=O)CCN)CC2)c2ccccc2n1` [compound 222, N-((1r,4r)-4-(3-aminopropanamido)cyclohexyl)-2-methoxyquinoline-4-carboxamide], the IC50 is greater than 100 µM. In the case of `CC(NC(=O)c1nccn1C)C1CCN(C(=O)[C@H](C)N)CC1` (stereo partly drawn) [compound 253, N-(1-(1-(L-alanyl)piperidin-4-yl)ethyl)-1-methyl-1H-imidazole-2-carboxamide], the IC50 was 64.9 µM. Take `CC(NC(=O)c1cncnc1O)C1CCN(C(=O)[C@H](C)N)CC1` (stereo partly drawn) [compound 509, N-(1-(1-(L-alanyl)piperidin-4-yl)ethyl)-4-hydroxypyrimidine-5-carboxamide]: the IC50 was greater than 50 µM.

Consider `CC(NC(=O)c1ccc2cnn(C)c2c1)C1CCN(C(=O)[C@H](C)N)CC1` (stereo partly drawn) [compound 219, N-(1-(1-(L-alanyl)piperidin-4-yl)ethyl)-1-methyl-1H-indazole-6-carboxamide], for which the IC50 was greater than 100 µM.

Turning to `CC(C)(CNC(=O)CCN)CNS(=O)(=O)c1ccc2c(c1)CC(=O)N2` [compound 468, 3-amino-N-(2,2-dimethyl-3-((2-oxoindoline)-5-sulfonamido)propyl)propanamide], the IC50 turned out to be 18.3 µM.

Regarding `Cc1cccc2cc(C(=O)N[C@H]3CC[C@H](NC(=O)CCN)CC3)[nH]c12` [compound 342, N-((1r,4r)-4-(3-aminopropanamido)cyclohexyl)-7-methyl-1H-indole-2-carboxamide], the IC50 was 37.7 µM. The same measure, in the same setting: to `CC(NC(=O)c1ccc2cnccc2c1)C1CCN(C(=O)[C@H](C)N)CC1` (stereo partly drawn) [compound 194, N-(1-(1-(L-alanyl)piperidin-4-yl)ethyl)isoquinoline-6-carboxamide] belongs greater than 100 µM; to `Cc1nn(C(C)C(=O)N[C@H]2CC[C@H](N)CC2)c(C)c1Br` (stereo partly drawn) [compound 454, N-((1r,4r)-4-aminocyclohexyl)-2-(4-bromo-3,5-dimethyl-1H-pyrazol-1-yl)propanamide], greater than 100 µM; to `NCCC(=O)N[C@H]1CC[C@H](NC(=O)[C@H]2CC[C@H](N)CC2)CC1` [compound 303, (1r,4r)-4-amino-N-((1r,4r)-4-(3-aminopropanamido)cyclohexyl)cyclohexane-1-carboxamide], greater than 100 µM. On the same count and under the same terms, under `Cc1cccc(Cn2nc(C(C)(C)C)cc2C(=O)N[C@H]2CC[C@H](NC(=O)CCN)CC2)c1` [compound 340, N-((1r,4r)-4-(3-aminopropanamido)cyclohexyl)-3-(tert-butyl)-1-(3-methylbenzyl)-1H-pyrazole-5-carboxamide] stands greater than 100 µM; under `CC(=O)Nc1ccc(C(=O)N[C@H]2CC[C@H](NC(=O)CCN)CC2)nc1` [compound 463, 5-acetamido-N-((1r,4r)-4-(3-aminopropanamido)cyclohexyl)picolinamide], greater than 100 µM. The same measure, in the same setting: under `CC(NC(=O)[C@@H]1C[C@H](F)CN1)C1CCN(C(=O)[C@H](C)N)CC1` (stereo partly drawn) [compound 305, (2S,4S)-N-(1-(1-(L-alanyl)piperidin-4-yl)ethyl)-4-fluoropyrrolidine-2-carboxamide] stands 55.9 µM. As for `COc1cccc(C(=O)N[C@H]2CC[C@H](N)CC2)n1` [compound 354, N-((1r,4r)-4-aminocyclohexyl)-6-methoxypicolinamide], the IC50 was greater than 100 µM. As for `Nc1ccnc2ccc(C(=O)N[C@H]3CC[C@H](N)CC3)cc12` [compound 211, 4-amino-N-((1r,4r)-4-aminocyclohexyl)quinoline-6-carboxamide], the IC50 came out at 43.7 µM. In the case of `COc1cccc2[nH]cc(C(=O)NC(C)C3CCN(C(=O)[C@H](C)N)CC3)c12` (stereo partly drawn) [compound 370, N-(1-(1-(L-alanyl)piperidin-4-yl)ethyl)-4-methoxy-1H-indole-3-carboxamide], the IC50 was greater than 100 µM.

In the case of `N[C@H]1CC[C@H](NC(=O)[C@H]2CC[C@H](N)CC2)CC1` [compound 304, (1r,4r)-4-amino-N-((1r,4r)-4-aminocyclohexyl)cyclohexane-1-carboxamide], the IC50 is greater than 100 µM. Same read-out and setting: under `N[C@H]1CC[C@H](NS(=O)(=O)c2ccc3c(c2)CC(=O)N3)CC1` [compound 429, N-((1r,4r)-4-aminocyclohexyl)-2-oxoindoline-5-sulfonamide] stands 14.5 µM; under `CC(NC(=O)c1cc2ccccc2nc1O)C1CCN(C(=O)[C@H](C)N)CC1` (stereo partly drawn) [compound 474, N-(1-(1-(L-alanyl)piperidin-4-yl)ethyl)-2-hydroxyquinoline-3-carboxamide], 22.1 µM; under `CC(NC(=O)c1ccncc1F)C1CCN(C(=O)[C@H](C)N)CC1` (stereo partly drawn) [compound 267, N-(1-(1-(L-alanyl)piperidin-4-yl)ethyl)-3-fluoroisonicotinamide], greater than 100 µM. As to `CC(NC(=O)c1ccnc(O)c1)C1CCN(C(=O)[C@H](C)N)CC1` (stereo partly drawn) [compound 249, N-(1-(1-(L-alanyl)piperidin-4-yl)ethyl)-2-hydroxyisonicotinamide], the IC50 worked out at 65.9 µM. Same read-out and setting: to `N[C@H]1CC[C@H](NC(=O)c2ccc(-n3cncn3)cc2)CC1` [compound 455, N-((1r,4r)-4-aminocyclohexyl)-4-(1H-1,2,4-triazol-1-yl)benzamide] belongs greater than 100 µM.

The test is the same for the next values; noted with them: read-out: SMYD3 Biochem IC50 (μM)*.
Regarding `NCCC(=O)N[C@H]1CC[C@H](NC(=O)c2ccc(-c3ccccc3)cc2)CC1` [compound 154, N-((1r,4r)-4-(3-aminopropanamido)cyclohexyl)-[1,1′-biphenyl]-4-carboxamide], the IC50 is 37.3 µM.

Turning to `O=C1Cc2cc(C(=O)NCC3(O)CCNCC3)ccc2N1` [compound 105, N-((4-hydroxypiperidin-4-yl)methyl)-2-oxoindoline-5-carboxamide], the IC50 was determined as 40.4 µM.

`O=C1Cc2cc(C(=O)NC[C@H]3CCNC3)ccc2N1` [compound 101, (S)-2-oxo-N-(pyrrolidin-3-ylmethyl)indoline-5-carboxamide]: the 50% inhibitory concentration (IC50) worked out at 25.4 µM.

Take `Cn1nc(O)cc1C(=O)N[C@H]1CC[C@H](N)CC1` [compound 67, N-((1r,4r)-4-ammocyclohexyl)-3-hydroxy-1-methyl-1H-pyrazole-5-carboxamide]: the IC50 was determined as 129 µM.

For the compound `CC(=O)Nc1cccc(C(=O)N[C@H]2CC[C@H](N)CC2)c1` [compound 24, 3-acetamido-N-((1r,4r)-4-aminocyclohexyl)benzamide], the IC50 was found to be 80.3 µM.

With `Cc1cc2[nH]c(C(=O)N[C@H]3CC[C@H](N)CC3)cc2o1` [compound 57, N-((1r,4r)-4-aminocyclohexyl)-2-methyl-4H-furo[3,2-b]pyrrole-5-carboxamide], the IC50 is 134 µM. Take `CC(=O)Nc1ccc(S(=O)(=O)N2CCC(NC(=O)c3ccncc3)CC2)cc1` [compound 4, N-(1-((4-acetamidophenyl)sulfonyl)piperidin-4-yl)isonicotinamide]: the IC50 is greater than 100 µM.

For the compound `N[C@H]1CC[C@H](NC(=O)c2ccc3cc[nH]c3c2)CC1` [compound 160, N-((1r,4r)-4-aminocyclohexyl)-1H-indole-6-carboxamide], the IC50 was greater than 100 µM. Turning to `N[C@H]1CC[C@H](NC(=O)c2ccc3nc[nH]c3c2)CC1` [compound 161, N-((1r,4r)-4-aminocyclohexyl)-1H-benzo[d]imidazole-6-carboxamide], the IC50 is greater than 100 µM. In the case of `CCOC(=O)C(NC(=O)c1ccc2c(c1)CC(=O)N2)C1CCNCC1` (stereo not drawn) [compound 122, ethyl 2-(2-oxoindoline-5-carboxamido)-2-(piperidin-4-yl)acetate], the 50% inhibitory concentration (IC50) was 42.3 µM. Turning to `Cc1cc(C(=O)N[C@H]2CC[C@H](N)CC2)n(Cc2ccccc2)n1` [Cpd. No. 29, N-((1r,4r)-4-aminocyclohexyl)-1-benzyl-3-methyl-1H-pyrazole-5-carboxamide Hydrochloride], the IC50 stood at 14 µM.

With `CC(=O)c1c[nH]c(C(=O)NC2CCNCC2)c1` [compound 65, 4-acetyl-N-(piperidin-4-yl)-1H-pyrrole-2-carboxamide], the IC50 was 45.8 µM.

The values are drawn from patent publication US10266526B2, “Substituted 1,2,3-triazoles as SMYD inhibitors for treating cancer” (EPIZYME, INC., priority 2014, dated 2019).
